Earlier results in patent publication US4486419A, “5,2',3',4',4",6"-Hexadeoxykanamycin and its 1-N-acylated derivative” (Zaidan Hojin Biseibutsu Kagaku Kenkyu Kai, priority 1982, dated 1984).

System: dibekacin-resistant bacteria
Settings: background, U.S. Pat. No. 4,107,424; cited from earlier work

Q: With `NCC[C@H](O)C(=O)N[C@@H]1C[C@H](N)[C@@H](O[C@H]2O[C@H](CN)CC[C@H]2N)[C@H](O)[C@H]1O[C@H]1O[C@H](CO)[C@@H](O)[C@H](N)[C@H]1O` [Habekacin, 1-N-[(S)-4-amino-2-hydroxybutyryl] dibekacin] as the molecule, how does the “activity against dibekacin-resistant bacteria” value read?
A: active against dibekacin-resistant bacteria
